In patent US20140018242A1, “METHOD OF CROP ENHANCEMENT” (SYNGENTA PARTICIPATIONS AG, priority 2010, published 2014):

Test system: Soybeans (Glycine max)
Experiment: Seed application on soybeans in pouch, plant growth effects (shoot length, root system)
Type: in vivo
Conditions: AI concentration 4 ppm, 14 days, additional growth vs blank formulation check
Method: The formulated test compounds were added to a defined amount of water. This solution was applied into a pouch which was previously equipped with a filter paper. After the application soybean seeds were sown into the upper fault of the filter paper. The prepared pouches were then incubated for 14 days at 25° C. and a relative humidity of 65% with a photo period of 16 h. The evaluation was made by assessing the shoot length and the root system. Data represent the average of 10 replicates (1seed/plant per pouch).
With `CON1CCC2(CC1)C(O)=C(c1c(C)cc(C)cc1C)C(=O)N2C` [Compound P2.2, 4-hydroxy-8-methoxy-1-methyl-3-(2,4,6-trimethyl-phenyl)-1,8-diaza-spiro[4.5]dec-3-en-2-one] the “Mean shoot height increase (%)” value was 7.2% and the “Mean shoot height increase in cm” value was 1.4 cm.

Same assay, conditions: AI concentration 5 ppm, 14 days, additional growth vs blank formulation check
For `CCOC(=O)OC1=C(c2c(C)cc(C)cc2C)C(=O)N(C)C12CCN(OC)CC2` [Compound P1.2, Carbonic acid ethyl ester 8-methoxy-1-methyl-2-oxo-3-(2,4,6-trimethyl-phenyl)-1,8-diaza-spiro[4.5]dec-3-en-4-yl ester], the “Mean shoot height increase (%)” value was 8.5% and the “Mean shoot height increase in cm” value was 1.7 cm. For `CCOC(=O)OC1=C(c2c(C)cc(Br)cc2C)C(=O)N(C)C12CCN(OC)CC2` [Compound P1.12], the “Mean shoot height increase (%)” value was 16.0% and the “Mean shoot height increase in cm” value was 3.8 cm. With `CCOC(=O)OC1=C(c2c(C)ccc(C)c2C)C(=O)N(C)C12CCN(OC)CC2` [Compound P1.21] the “Mean shoot height increase (%)” value was 24.5% and the “Mean shoot height increase in cm” value was 5.8 cm. With `CCOC(=O)OC1=C(c2c(C)cc(C)cc2C)C(=O)N(OCC)C12CCN(OC)CC2` [Compound P1ii.15] the “Mean shoot height increase (%)” value was 38.9% and the “Mean shoot height increase in cm” value was 3.8 cm. For `CCOC(=O)OC1=C(c2cc(C)c(C)cc2C)C(=O)N(OCOC)C12CCN(OC)CC2` [Compound P1ii.56], the “Mean shoot height increase (%)” value was 7.2% and the “Mean shoot height increase in cm” value was 1.7 cm. For `CCOC(=O)OC1=C(c2cc(C)c(C)cc2C)C(=O)N(OC)C12CCN(OC)CC2` [Compound P1ii.57], the “Mean shoot height increase (%)” value was 10.2% and the “Mean shoot height increase in cm” value was 2.4 cm. With `C=CCOC(=O)OC1=C(c2c(C)cc(C)cc2C)C(=O)N(C)C12CCN(OC)CC2` [T1.070, wherein G is COOCH2CH═CH2] the “Mean shoot height increase (%)” value was 10.2% and the “Mean shoot height increase in cm” value was 2.1 cm. In the case of `CCOC(=O)OC1=C(c2c(C)cc(Br)cc2CC)C(=O)N(C)C12CCN(OC)CC2` [T1.078, wherein G is COOCH2CH3], the “Mean shoot height increase (%)” value is reported as 8.1% and the “Mean shoot height increase in cm” value is reported as 1.7 cm. With `CCOC(=O)OC1=C(c2c(C)cc(Cl)cc2OC)C(=O)N(C)C12CCN(OC)CC2` [T1.096, wherein G is COOCH2CH3] the “Mean shoot height increase (%)” value was 6.6% and the “Mean shoot height increase in cm” value was 1.4 cm. With `CCOC(=O)OC1=C(c2c(C)cc(Cl)cc2C)C(=O)NC12CCN(OC)CC2` [T1iii.067, wherein G is COOCH2CH3] the “Mean shoot height increase (%)” value was 15.5% and the “Mean shoot height increase in cm” value was 3.9 cm. With `CCOC(=O)OC1=C(c2c(C)cc(C)cc2CC)C(=O)NC12CCN(OC)CC2` [T1iii.071, wherein G is COOCH2CH3] the “Mean shoot height increase (%)” value was 8.6% and the “Mean shoot height increase in cm” value was 1.8 cm. In the case of `CCOC(=O)OC1=C(c2c(C)cc(C)cc2OC)C(=O)NC12CCN(OC)CC2` [T1iii.072, wherein G is COOCH2CH3], the “Mean shoot height increase (%)” value is reported as 8.9% and the “Mean shoot height increase in cm” value is reported as 2.1 cm. With `CCOC(=O)OC1=C(c2c(C)cc(Cl)cc2OC)C(=O)NC12CCN(OC)CC2` [T1iii.096, wherein G is COOCH2CH3] the “Mean shoot height increase (%)” value was 18.4% and the “Mean shoot height increase in cm” value was 3.8 cm. With `CCOC(=O)OC1=C(c2c(C)cc(C)cc2OC)C(=O)N(OCC)C12CCN(OC)CC2` [T3ii.072, wherein G is COOCH2CH3] the “Mean shoot height increase (%)” value was 10.6% and the “Mean shoot height increase in cm” value was 2.2 cm. With `CCOC(=O)OC1=C(c2c(C)cc(Br)cc2CC)C(=O)N(OC2CCCO2)C12CCN(OC)CC2` (stereo not drawn) [T25N.078, wherein G is COOCH2CH3] the “Mean shoot height increase (%)” value was 14.5% and the “Mean shoot height increase in cm” value was 3.0 cm.

Test system: not given
Experiment: not given
Conditions: not given
Work on `CCOC(=O)OC1=C(c2cc(C)ccc2C)C(=O)N(C)C12CCN(OC)CC2` [Compound P1.1] yielded a melting point of 96 to 110 °C. With `CCOC(=O)OC1=C(c2c(C)cc(C)cc2C)C(=O)N(CC)C12CCN(OC)CC2` [Compound P1.8] the melting point was 101 to 103 °C. Work on `CCOC(=O)OC1=C(c2cc(C)c(C)cc2Br)C(=O)N(C)C12CCN(OC)CC2` [Compound P1.20] yielded a melting point of 158 to 159 °C. `CCOC(=O)OC1=C(c2cc(C)c(C)cc2Cl)C(=O)N(C)C12CCN(OC)CC2` [Compound P1.22] gave a melting point of 149 to 150 °C.
